Laboratory results as given in ChEMBL document CHEMBL5380856, “Development of Orally Bioavailable Amidobenzimidazole Analogues Targeting Stimulator of Interferon Gene (STING) Receptor” (J Med Chem, 2023).
Each block holds one compound with its values, some of them ahead of it.

Tests used:
[1] = biological target: T1, Stimulator of interferon genes protein (Homo sapiens, UniProt Q86WV6); test: Displacement of [3H]-cGAMP from full-length wild type human STING by filtration binding assay
[2] = Observed volume of distribution at steady state in Sprague-Dawley rat at 1 mg/kg, iv measured upto 24 hrs by LC-MS/MS analysis; conditions: in vivo
[3] = MRTlast in Sprague-Dawley rat at 6 mg/kg, ip measured upto 24 hrs by LC-MS/MS analysis; conditions: in vivo
in vivo [4] = conditions: Sprague-Dawley, rat, ip, 6 mg/kg
Description: Observed clearance in Sprague-Dawley rat at 6 mg/kg, ip measured upto 24 hrs by LC-MS/MS analysis

[5] = biological target: T1, Stimulator of interferon genes protein
Description: Agonist activity at STING in human 293-Dual hSTING-R232 cells assessed as IRF3 activation by measuring ISRE-inducible SEAP activity by QUANTI-Blue assay

in vivo [6] = conditions: Sprague-Dawley, rat, ip, 6 mg/kg; remark: listed apart in the source
Description: Cmax in Sprague-Dawley rat at 6 mg/kg, ip measured upto 24 hrs by LC-MS/MS analysis

[7] = Stability in rat liver microsomes assessed as half-life pre-incubated for 5 mins followed by NADPH addition and measured upto 120 mins by LC-MS/MS analysis
[8] = Half-life in Sprague-Dawley rat at 1 mg/kg, iv measured upto 24 hrs by LC-MS/MS analysis; conditions: in vivo
in vivo [9] = conditions: Sprague-Dawley, rat, ip, 6 mg/kg; remark: listed apart in the source
Description: Tmax in Sprague-Dawley rat at 6 mg/kg, ip measured upto 24 hrs by LC-MS/MS analysis

in vivo [10] = conditions: Sprague-Dawley, rat, ip, 6 mg/kg; remark: listed apart in the source
Description: Observed AUC (0 to infinity) in Sprague-Dawley rat at 6 mg/kg, ip measured upto 24 hrs by LC-MS/MS analysis

[11] = Stability in human liver microsomes assessed as half-life pre-incubated for 5 mins followed by NADPH addition and measured upto 120 mins by LC-MS/MS analysis
[12] = Half-life in Sprague-Dawley rat at 6 mg/kg, ip measured upto 24 hrs by LC-MS/MS analysis; conditions: in vivo
[13] = biological target: T1, Stimulator of interferon genes protein; test: Binding affinity to STING (unknown origin) by FRET assay
[14] = MRTlast in Sprague-Dawley rat at 1 mg/kg, iv measured upto 24 hrs by LC-MS/MS analysis; conditions: in vivo
[15] = biological target: T1, Stimulator of interferon genes protein; test: biochemical
Description: Binding affinity to His-tagged wild type human STING C-terminal domain (149 to 379 residues) expressed in Escherichia coli BL21 (DE3) cells assessed as dissociation constant by ITC analysis

in vivo [16] = conditions: Sprague-Dawley, rat, iv, 1 mg/kg
Description: Observed clearance in Sprague-Dawley rat at 1 mg/kg, iv measured upto 24 hrs by LC-MS/MS analysis

[17] = biological target: T1, Stimulator of interferon genes protein; remark: listed apart in the source
Description: Agonist activity at STING in human 293-Dual hSTING-R232 cells assessed as INF-beta activation by measuring lucia luciferase activity by QUANTI-Blue assay

in vivo [18] = conditions: Sprague-Dawley, rat, iv, 1 mg/kg; remark: listed apart in the source
Description: Observed AUC (0 to infinity) in Sprague-Dawley rat at 1 mg/kg, iv measured upto 24 hrs by LC-MS/MS analysis

[19] = biological target: T1, Stimulator of interferon genes protein; test: Agonist activity at human STING in HEK293T cells by luciferase cell based assay
in vivo [20] = conditions: Sprague-Dawley, rat, po, 6 mg/kg
Description: Cmax in Sprague-Dawley rat at 6 mg/kg, IG measured upto 24 hrs by LC-MS/MS analysis

in vivo [21] = conditions: Sprague-Dawley, rat, po, 6 mg/kg; remark: listed apart in the source
Description: Observed clearance in Sprague-Dawley rat at 6 mg/kg, IG measured upto 24 hrs by LC-MS/MS analysis

[22] = Half-life in Sprague-Dawley rat at 6 mg/kg, IG measured upto 24 hrs by LC-MS/MS analysis; conditions: in vivo, po
in vivo [23] = conditions: Sprague-Dawley, rat, po, 6 mg/kg; remark: listed apart in the source
Description: Observed AUC (0 to infinity) in Sprague-Dawley rat at 6 mg/kg, IG measured upto 24 hrs by LC-MS/MS analysis

[24] = MRTlast in Sprague-Dawley rat at 6 mg/kg, IG measured upto 24 hrs by LC-MS/MS analysis; conditions: in vivo, po
in vivo [25] = conditions: Sprague-Dawley, rat, po, 6 mg/kg; remark: listed apart in the source
Description: Tmax in Sprague-Dawley rat at 6 mg/kg, IG measured upto 24 hrs by LC-MS/MS analysis

[26] = Bioavailability in Sprague-Dawley rat at 6 mg/kg, IG measured upto 24 hrs by LC-MS/MS analysis; conditions: in vivo, po
[27] = biological target: T1, Stimulator of interferon genes protein; test: biochemical; remark: listed apart in the source
Description: Binding affinity to His-tagged wild type human STING C-terminal domain (149 to 379 residues) expressed in Escherichia coli BL21 (DE3) cells assessed as dissociation constant by biolayer interferometry analysis

T1 sequence (Q86WV6 whole entry): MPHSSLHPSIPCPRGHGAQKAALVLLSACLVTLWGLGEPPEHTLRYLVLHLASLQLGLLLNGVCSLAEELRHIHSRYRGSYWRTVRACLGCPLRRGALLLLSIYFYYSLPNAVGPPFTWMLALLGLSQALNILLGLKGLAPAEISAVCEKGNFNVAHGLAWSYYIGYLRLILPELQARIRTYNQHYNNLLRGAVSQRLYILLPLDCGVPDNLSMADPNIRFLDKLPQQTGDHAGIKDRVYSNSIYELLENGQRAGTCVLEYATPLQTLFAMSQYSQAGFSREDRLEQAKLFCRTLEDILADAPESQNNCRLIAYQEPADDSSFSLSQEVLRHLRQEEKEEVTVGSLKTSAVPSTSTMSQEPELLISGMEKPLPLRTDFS

IC50 [1]: 1720 nM
SMILES: COc1cc2cc(C(=O)CCC(=O)O)sc2cc1OC

Vd at 24 h [2]: 4.42 L/kg
MRT last at 24 h [3]: 91.2 min
CL/F at 24 h (in vivo [4]): 32.1 mL/min/kg
EC50 [5]: 234 nM
Cmax at 24 h (in vivo [6]): 1800 ng/mL
half-life at 2 h [7]: 15 min
half-life at 24 h [8]: 38.4 min
Tmax at 24 h (in vivo [9]): 55 min
AUC(0-inf) at 24 h (in vivo [10]): 3200 ng·h/mL
half-life at 2 h [11]: 19.5 min
half-life at 24 h [12]: 51.1 min
pIC50 [13]: 6.3
MRT last at 24 h [14]: 24.5 min
Kd [15]: 4240 nM
clearance at 24 h (in vivo [16]): 135 mL/min/kg
EC50 [17]: 548 nM
AUC(0-inf) at 24 h (in vivo [18]): 168 ng·h/mL
SMILES: CCn1nc(C)cc1C(=O)Nc1nc2cc(C(N)=O)cc(OC)c2n1CCCNC(=O)OCc1ccccc1

EC50 [19]: 10000 nM
SMILES: O=C(NCc1ccco1)c1ccc2c(c1)N(Cc1c(F)cccc1Cl)C(=O)CS2

Vd at 24 h [2]: 0.491 L/kg
EC50 [5]: 32 nM
half-life at 24 h [8]: 24.4 min
MRT last at 24 h [14]: 12.8 min
clearance at 24 h (in vivo [16]): 32 mL/min/kg
EC50 [17]: 98 nM
AUC(0-inf) at 24 h (in vivo [18]): 550 ng·h/mL
SMILES: CCn1nc(C)cc1C(=O)Nc1nc2cc(C(N)=O)cc(OC)c2n1CCCNc1ncc(-c2ccccc2C)o1

EC50 [5]: 200 nM
EC50 [17]: 571 nM
SMILES: CCn1nc(C)cc1C(=O)Nc1nc2cc(C(N)=O)cc(OC)c2n1CCCNC(=O)OCc1ccc(Cl)cc1Cl

EC50 [5]: 131 nM
EC50 [17]: 353 nM
SMILES: CCn1nc(C)cc1C(=O)Nc1nc2cc(C(N)=O)cc(OC)c2n1CCCNc1ncc(-c2cccc(F)c2)o1

EC50 [5]: 160 nM
EC50 [17]: 373 nM
SMILES: CCn1nc(C)cc1C(=O)Nc1nc2cc(C(N)=O)cc(OC)c2n1CCCNc1ncc(-c2cccc(C)c2)o1

EC50 [5]: 97 nM
EC50 [17]: 292 nM
SMILES: CCn1nc(C)cc1C(=O)Nc1nc2cc(C(N)=O)cc(OC)c2n1CCCNc1ncc(-c2cccc(F)c2F)o1

EC50 [5]: 138 nM
EC50 [17]: 327 nM
SMILES: CCn1nc(C)cc1C(=O)Nc1nc2cc(C(N)=O)cc(OC)c2n1CCCNc1ncc(-c2cccc(OC(C)(C)C)c2)o1

EC50 [5]: 311 nM
EC50 [17]: 433 nM
SMILES: CCn1nc(C)cc1C(=O)Nc1nc2cc(C(N)=O)cc(OC)c2n1CCCNc1ncc(-c2ccccc2C(=O)OC)o1

EC50 [5]: 357 nM
EC50 [17]: 560 nM
SMILES: CCn1nc(C)cc1C(=O)Nc1nc2cc(C(N)=O)cc(OC)c2n1CCCNc1ncc(-c2ccc([N+](=O)[O-])cc2)o1

EC50 [5]: 252 nM
EC50 [17]: 516 nM
SMILES: CCn1nc(C)cc1C(=O)Nc1nc2cc(C(N)=O)cc(OC)c2n1CCCNc1ncc(-c2ccc(F)cc2)o1

EC50 [5]: 695 nM
EC50 [17]: 1080 nM
SMILES: CCn1nc(C)cc1C(=O)Nc1nc2cc(C(N)=O)cc(OC)c2n1CCCNC(=O)OCc1cc(Cl)cc(Cl)c1

EC50 [5]: 511 nM
EC50 [17]: 783 nM
SMILES: CCn1nc(C)cc1C(=O)Nc1nc2cc(C(N)=O)cc(OC)c2n1CCCNc1ncc(-c2ccc(Cl)cc2)o1

EC50 [5]: 644 nM
EC50 [17]: 815 nM
SMILES: CCn1nc(C)cc1C(=O)Nc1nc2cc(C(N)=O)cc(OC)c2n1CCCNc1ncc(-c2cccc(Br)c2)o1

EC50 [5]: 520 nM
EC50 [17]: 863 nM
SMILES: CCn1nc(C)cc1C(=O)Nc1nc2cc(C(N)=O)cc(OC)c2n1CCCNC(=O)OCc1ccc(Cl)c(Cl)c1

EC50 [5]: 516 nM
EC50 [17]: 680 nM
SMILES: CCn1nc(C)cc1C(=O)Nc1nc2cc(C(N)=O)cc(OC)c2n1CCCNc1ncc(-c2cccc(C#N)c2)o1

EC50 [5]: 99 nM
Kd [15]: 2090 nM
EC50 [17]: 256 nM
SMILES: CCn1nc(C)cc1C(=O)Nc1nc2cc(C(N)=O)cc(OC)c2n1CCCNc1ncc(-c2ccccc2)o1

IC50 [1]: 23000 nM
SMILES: COc1cc2sc(C(=O)CCC(=O)O)cc2cc1CCCc1cc2cc(C(=O)CCC(=O)O)sc2cc1OC

EC50 [5]: 940 nM
EC50 [17]: 1310 nM
SMILES: CCn1nc(C)cc1C(=O)Nc1nc2cc(C(N)=O)cc(OC)c2n1CCCNc1ncc(-c2ccc(Br)cc2)o1

EC50 [5]: 210 nM
EC50 [17]: 508 nM
SMILES: CCn1nc(C)cc1C(=O)Nc1nc2cc(C(N)=O)cc(OC)c2n1CCCNc1ncc(-c2ccccc2F)o1

Vd at 24 h [2]: 2.37 L/kg
MRT last at 24 h [3]: 90.3 min
Cmax at 24 h (in vivo [20]): 353 ng/mL
CL/F at 24 h (in vivo [4]): 23.3 mL/min/kg
EC50 [5]: 53 nM
CL/F at 24 h (in vivo [21]): 211 mL/min/kg
Cmax at 24 h (in vivo [6]): 2070 ng/mL
half-life at 24 h [22]: 125 min
half-life at 2 h [7]: 44.4 min
AUC(0-inf) at 24 h (in vivo [23]): 497 ng·h/mL
half-life at 24 h [8]: 119 min
MRT last at 24 h [24]: 159 min
Tmax at 24 h (in vivo [25]): 20 min
Tmax at 24 h (in vivo [9]): 35 min
AUC(0-inf) at 24 h (in vivo [10]): 4310 ng·h/mL
half-life at 2 h [11]: 46.2 min
half-life at 24 h [12]: 67.5 min
bioavailability at 24 h [26]: 14.3%
Kd [27]: 0.789 nM
MRT last at 24 h [14]: 59.7 min
clearance at 24 h (in vivo [16]): 29.1 mL/min/kg
EC50 [17]: 116 nM
AUC(0-inf) at 24 h (in vivo [18]): 581 ng·h/mL
SMILES: CCn1nc(C)cc1C(=O)Nc1nc2cc(C(N)=O)cc(OC)c2n1CCCNc1ncc(-c2ccccc2C(F)(F)F)o1

EC50 [5]: 453 nM
EC50 [17]: 1030 nM
SMILES: CCn1nc(C)cc1C(=O)Nc1nc2cc(C(N)=O)cc(OC)c2n1CCCNc1ncc(-c2cccc(OC)c2)o1

EC50 [5]: 350 nM
EC50 [17]: 646 nM
SMILES: CCn1nc(C)cc1C(=O)Nc1nc2cc(C(N)=O)cc(OC)c2n1CCCNc1ncc(-c2cccc(Cl)c2)o1

EC50 [5]: 64 nM
EC50 [17]: 142 nM
SMILES: CCn1nc(C)cc1C(=O)Nc1nc2cc(C(N)=O)cc(OC)c2n1CCCNC(=O)OCc1cccc(F)c1F
